Measurements from ChEMBL document CHEMBL3507680, “University of Dundee, Gates Library screen for HepG2 cell viability”.

Experiment: Human HepG2 cell viability assay in 384 well format
Format: toxicity, cell-based
Parameters: dose 125 nL, time 70.5 hour; concentration not given beside the values
Details: HepG2 cells, read-out: Inhibition

| Compound | cytotoxicity at 70.5 h [%] |
| --- | --- |
| CS(=O)(=O)N1CCN(C(=O)c2cnn3c2OCCC3)CC1 | -2.74 |
| CN(C)S(=O)(=O)N1CCC2(COCc3cnc(-c4ccccc4)nc32)C1 (configuration not stated) | -23.1 |
| O=C(C1CC(=O)N(C2CCCC2)C1)N1CCN(CCn2cccc2)CC1 (configuration not stated) | -5.71 |
| O=C(NCCCOC1CCCCC1)C1NCCc2[nH]cnc21 (configuration not stated) | -3.08 |
| Cc1nc(-c2ccccc2)n(CC(=O)NC2CCCC2)n1 | -13.6 |
| O=C(c1cnccn1)N1CCOC2(CCN(Cc3ccsc3)CC2)C1 | 4.24 |
| CC(C)c1n[nH]c(C(=O)Nc2ccccn2)c1Br | 12.4 |
| CC(=O)N1CCc2[nH]cnc2C1C1=CCCN(CCn2cccc2)C1 (configuration not stated) | -4.34 |
| CCSc1ccc(C(=O)N2CCCCC2C(=O)NC(C)(C)C)cn1 (configuration not stated) | -7.45 |
| CC(CNC(=O)CCc1ccco1)N1CCc2sccc2C1 (configuration not stated) | 3.4 |
| CC(C)n1ccnc1C1CCN(c2nccc(C(F)(F)F)n2)CC1 | 5.98 |
| COCCN(CC(N)=O)CC1CCCN(C2Cc3ccccc3C2)C1 (configuration not stated) | 7.41 |
| c1csc(CN2CCO[C@@H]3CN(C4CCOCC4)C[C@@H]3C2)c1 | -10 |
| CN(C)CCCn1ccnc1C1CCN(c2cccc(C(=O)O)n2)CC1 | -5.15 |
| Cc1nc(S(=O)(=O)N2CCSCC2)cn1C | -2.15 |
| NC(=O)c1ccc(C(=O)N2CCCC(n3ccnc3)C2)s1 (configuration not stated) | -2.91 |
| Cc1ccc(N2CCCN(C(=O)c3cc(Cl)c[nH]3)CC2)nn1 | -8.66 |
| CSCCCN1C(=O)CC[C@H]2CN(Cc3ncc[nH]3)CC[C@H]21 | -5.45 |
| Fc1cnccc1CN1CCC2(CCNCC2)C1 | -10.4 |
| Cc1cc(Cl)cc(C)c1CNC1CCN(CC(=O)N(C)C)CC1 | -2.67 |
| COc1ccc(N(C(=O)c2ccccn2)C(C)C)cc1F | -3.02 |
| CCCc1noc(CCC(=O)N2CCCCC2Cn2cc(C)cn2)n1 (configuration not stated) | -13.5 |
| Cc1cnc(CN2CCCC2c2noc(C)n2)cn1 (configuration not stated) | 5.04 |

| Compound | cytotoxicity at 70.5 h [%] |
| --- | --- |
| CC(C)CN1C(=O)COC[C@@H]1[C@H](O)c1ccc(NC(=O)C2CC2)cc1 | 5.4 |
| CC(C)N(C(=O)c1ccnc(OCC(F)(F)F)c1)c1cccnc1 | -12.7 |
| CN(Cc1ccccn1)C(=O)[C@]12COC[C@H]1CN(Cc1cnn(C)c1)C2 | -15.4 |
| O=C1CC[C@]2(CC[C@@H](NC(=O)NCc3ccccc3)CC2)N1 | 15.6 |
| Cc1cccc(C)c1OC1CCN(Cc2ccn(C)c(=O)c2)CC1 | -5.76 |
| Cc1cn2nc(N(C)C3CCCN(c4cccnn4)C3)sc2n1 (configuration not stated) | -11.5 |
| CC(C)(C)NC(=O)COc1ccc(CNCCOc2ccccn2)cc1 | -2.01 |
| COCC(=O)N1CCC2(CC1)CC(c1cnn(C)c1)C(=O)N2 (configuration not stated) | -6.84 |
| CC1CCN(c2ccc(=O)n(CC(=O)NCCc3ccccc3)n2)CC1 | 5.19 |
| CC(C)OCCCNC(=O)CS(=O)(=O)Cc1cccc(Cl)c1 | -10.6 |
| COCCNC(=O)[C@H]1CN(Cc2sccc2C)C[C@H]2OCC[C@@H]12 | 7.63 |
| Cc1nc(N(C)C)nc(NCCc2cnccn2)c1C | -1.68 |
| O=C(Cc1cccs1)N1CCC(O)(CN2CCc3ccccc3C2)C1 (configuration not stated) | -4.88 |
| CC(C)C(=O)N1CCC2(CCN2CC2CC2)C1 (configuration not stated) | -4.62 |
| Cc1ccc(NC(=O)c2nc(N3CCCCC3)ncc2Cl)cc1I | -7.45 |
| Cc1ccccc1CS(=O)(=O)CC(=O)N(C)Cc1cccc(F)c1 | -6.34 |
| CN(C)c1ncc(I)c(C2CCCN2S(C)(=O)=O)n1 (configuration not stated) | 44.4 |
| CCCn1cc(-c2ccnc(NC3CCc4ccccc43)n2)c(C)n1 (configuration not stated) | 4.9 |
| N#Cc1ccnc(N2CCN(CC(O)c3cccc(F)c3)CC2)c1 (configuration not stated) | -7.6 |
| CN(C)CCO[C@@H]1CC[C@H]2[C@H]1OCCN2C(=O)c1ccncc1 | -3.32 |
| c1ccc2c(c1)CN(c1ncnc3c1CCNC3)CCO2 | -5.38 |
| CSCCc1nc(C(C)C)nn1-c1ccncc1C | -12.8 |
| O=C(Cc1ccc(F)c(F)c1)NC1COc2ccccc2C1=O (configuration not stated) | -0.695 |

| Compound | cytotoxicity at 70.5 h [%] |
| --- | --- |
| CCc1[nH]c2c(CNC(=O)C3CCN(C)C3)cc(C)cc2c1C (configuration not stated) | -8.68 |
| Cc1ccccc1-c1cc(NC(=O)Cn2ccccc2=O)n(C)n1 | -0.508 |
| Cn1ccnc1SC1CCc2ccccc2NC1=O (configuration not stated) | -23.5 |
| Cc1cc2c(=O)n3c(nc2s1)CCN(Cc1ccncc1)CC3 | -13.5 |
| COCCC(=O)N1CCC(c2cncc(Oc3cccnc3)n2)CC1 | -0.961 |
| Cc1cc(C)c(CNC(=O)c2ccc3c(c2)CCC3)c(=O)[nH]1 | 4.13 |
| COc1cc(C)ccc1OCC(=O)Nc1ccnc(OCCN(C)C)c1 | 39.3 |
| CCc1nc(CN2CCCN(C(=O)C(C)COC)CC2)cs1 (configuration not stated) | -2.68 |
| Clc1cnccc1N1CCC(OC2CCOCC2)CC1 | -1.59 |
| O=C(c1ccncc1F)N1CC[C@@H]2OC(COCC3CC3)CC[C@@H]21 (some centres not stated) | 5.27 |
| COCCCNC(=O)Cn1c(-c2cccc(Cl)c2)nc(C)cc1=O | 2.43 |
| COc1ccccc1CC(C)CC(=O)NS(=O)(=O)C(C)C (configuration not stated) | 9.2 |
| CS(=O)(=O)NC[C@]12COC[C@H]1CN(C(=O)CCc1ccccc1)C2 | -2.39 |
| CN(C)C(=O)N1CCC2(CC1)CCN(Cc1ccccn1)C2=O | 25.9 |
| Cc1nccn1C1CCCN(C(=O)CCOCC(F)(F)F)C1 (configuration not stated) | 17.2 |
| Cc1ccccc1OC1CCN(CC(=O)Nc2cnn(C)c2C)CC1 | -2.68 |
| COc1cc(N2CCN(Cc3ccc(C)o3)C(CCO)C2)nc(N)n1 (configuration not stated) | -4.16 |
| Cc1nc2cc(C(=O)N(CCC#N)CCC#N)ccc2n1C | -6.33 |
| CCO[C@@H]1CC[C@H]2[C@H]1OCCN2Cc1ccc(F)cc1 | -16.2 |
| Cc1cnc(NC(=O)CSC2CCc3ccccc3NC2=O)s1 (configuration not stated) | 1.54 |
| CNC(=O)NC(=O)CCN1CCCC1c1nc(C2CCCCC2)co1 (configuration not stated) | -7.7 |
| Cc1csc(C(C)(C)NCC(=O)N(C)Cc2ccc(C)o2)n1 | 4.78 |
| NC(=O)c1cc(C2CCCN(C(=O)CCc3ccsc3)C2)n[nH]1 (configuration not stated) | -2.62 |

| Compound | cytotoxicity at 70.5 h [%] |
| --- | --- |
| CC(=O)Nc1ncc(S(=O)(=O)Nc2ccc(F)cc2F)s1 | -0.452 |
| Cc1cc(C)n(CC2CCCN2CC(=O)Nc2cc(C(C)C)no2)n1 (configuration not stated) | 14.2 |
| CCC(CO)N(Cc1ccccc1C)Cc1ccccc1C(=O)O (configuration not stated) | -2.15 |
| CC(C)N(C)Cc1nnc2n1CCCN(c1ncccn1)C2 | -2.54 |
| Cc1ccc(SCC2CNc3nc4ccccc4c(=O)n32)c(C)c1 (configuration not stated) | 20 |
| O=C(c1ccnnc1)N1CC[C@H]2[C@H]1CCN2S(=O)(=O)C1CC1 | -0.791 |
| O=C(c1cnccn1)N1CCCC(Cn2cc(C3CC3)nn2)C1 (configuration not stated) | 15.7 |
| CCc1ccc(C2CCCN2C(=O)Cc2ccc(NC(C)=O)cc2)o1 (configuration not stated) | 10.6 |
| CN(C)C(=O)NCc1nnn2c1CN(CC1CCOCC1)CCC2 | 0.222 |
| Cc1cc(C)c(CNC(=O)NCCNc2ncccn2)c(=O)[nH]1 | -12.7 |
| CC(NC(=O)Cn1cccn1)c1cccnc1 (configuration not stated) | -4.88 |
| CCOCC1CN(C(=O)c2ccco2)Cc2cnn(CC)c21 (configuration not stated) | 12.3 |
| CCC(=O)N1CCC(Cc2ccccc2-c2cccc(C)c2)(C(N)=O)C1 (configuration not stated) | 12.2 |
| Cc1ccc(N2CCN(C(=O)CCc3ccc(O)cc3)CC2=O)cc1 | -10.1 |
| Cc1noc([C@@H]2C[C@H]3OCC[C@H]3N(S(C)(=O)=O)C2)n1 | -8.57 |
| Cc1cccc(CN2CC[C@@H]3[C@@H]2CCN3C(=O)c2cc(C)oc2C)n1 | 13.1 |
| CCCS(=O)(=O)N1CCc2c(COCC)cncc2C1 | -3.03 |
| COc1ccccc1-c1ncc(CN2CCC3(CCNCC3)CC2)cn1 | -7.68 |
| CN(C)[C@@H]1CCN(C(=O)Cc2cccs2)[C@H]1Cc1cnn(C)c1 | -8.18 |
| COC[C@@]12CCC[C@@H]1CN(C(=O)COC1CCCC1)C2 | -6.5 |
| CCOC(=O)Cn1c(=O)c(OCC)nc2cnccc21 | -3.59 |
| CC(=O)Nc1ccc2c(c1)nc1n2[C@@H](CNCc2ccccc2)COC1 | -11.7 |
| CCN(CC)S(=O)(=O)c1ccc(CCC(=O)NCc2cc(C)on2)cc1 | -7.82 |

| Compound | cytotoxicity at 70.5 h [%] |
| --- | --- |
| CO[C@H]1CC[C@H]2[C@H]1OCCN2C(=O)c1ccc(C)nc1 | -2.48 |
| CC(C)(C)C(=O)N1CCCC1c1ccc(C(=O)N2CCOCC2)s1 (configuration not stated) | 16.2 |
| O=S1(=O)CCC(c2nnc(-c3cnc4onc(C5CCCC5)c4c3)o2)C1 (configuration not stated) | 20.9 |
| CC(C)c1[nH]c2ncccc2c1CN1CCN(S(=O)(=O)N(C)C)CC1 | -7.69 |
| Cc1cc(C)c2c(N(C)CC3CCN(CC(C)C)C3)ncnc2n1 (configuration not stated) | -2.13 |
| CN(CCNC(=O)Nc1ccncc1)C1CCCCC1 | 30.8 |
| Cc1c(C(=O)N2CCNC(=O)C2)sc2nc[nH]c(=O)c12 | 13.4 |
| O=C(C1=CCCC1)N1C[C@@H]2COC[C@]2(COc2ncccc2F)C1 | 6.81 |
| Cc1nc(C)c2c(n1)CCN(C(=O)CC1CC1)CC2 | -6.2 |
| CC(C)N1CCN(C(=O)Cc2csc(-c3ccco3)n2)CC1 | -0.696 |
| Cc1nccn1C1(C(=O)O)CCN(Cc2ccc3c(c2)OCCO3)CC1 | -3.95 |
| CCc1nc(CN2CCCN(C(=O)C(C)n3ccnc3)CC2)cs1 (configuration not stated) | -9 |
| Cc1cc(CN(C)S(=O)(=O)N2CCCC2c2ccc(C)o2)no1 (configuration not stated) | -9.33 |
| Cc1cnc(N(C)Cc2cnc3ccccc3n2)nc1N(C)C | -14.7 |
| CC(=O)c1ccc(CN2CCCC23CCN(c2ccccn2)CC3)cc1 | -25.1 |
| CCCSc1ncc(-c2nccn2CCC(N)=O)cn1 | -13.6 |
| CC(NC(=O)NCCCn1ccnc1)c1ccc2c(c1)OCCCO2 (configuration not stated) | -10.6 |
| CCc1ccc(CN2CCC(CNC(=O)c3ccc(C)nc3)C2)nc1 (configuration not stated) | 16 |
| Cc1nccc([C@H]2C[C@@H]3CCN(Cc4ccco4)C[C@H]3O2)n1 | -10.9 |
| CCn1nc(C)c(CCN2CC3(CCOC3)CCC2=O)c1C (configuration not stated) | 25.5 |
